From article PMC11087444, “Multi-functionalization of reduced graphene oxide nanosheets for tumor theragnosis: Synthesis, characterization, enzyme assay, in-silico study, radiolabeling and in vivo targeting evaluation” (DARU Journal of Pharmaceutical Sciences, 2023)
Blank lines part the entries; values can stand above or below the compound they belong to.

Assays:
[1] = test system: human breast cancer MDA-MB-436 cells; assay: MTT cell proliferation assay, cytotoxicity of compounds 3 and 4a-c; assay type: cell-based; settings: for IC50: Homo sapiens, MTT, BRCA1 deficient MDA-MB-436 cells; for reduction in potency (cytotoxicity): MDA-MB-436, relative to Staurosporine
Procedure: The cytotoxicity assay was performed at Department of therapeutic chemistry/ National Research Center. cytotoxic activity of target compounds 3, 4a-c was determined via three independent experiments by 3-(4,5-dimethylthiazolyl-2)-2,5-diphenyltetrazolium bromide (MTT) cell proliferation assay against the cell proliferation of human breast cancer MDA-MB-436 cells carrying natural BRCA1 deficient [R].

PARP-1 = biological target: T1, PARP-1 (Homo sapiens, UniProt P09874); assay: In vitro PARP inhibition assay (HT F Homogeneous PARP Inhibition Assay Kit); assay type: biochemical
T1 construct: purchased Trevigen 4690-096-K
T1 sequence (P09874 whole entry): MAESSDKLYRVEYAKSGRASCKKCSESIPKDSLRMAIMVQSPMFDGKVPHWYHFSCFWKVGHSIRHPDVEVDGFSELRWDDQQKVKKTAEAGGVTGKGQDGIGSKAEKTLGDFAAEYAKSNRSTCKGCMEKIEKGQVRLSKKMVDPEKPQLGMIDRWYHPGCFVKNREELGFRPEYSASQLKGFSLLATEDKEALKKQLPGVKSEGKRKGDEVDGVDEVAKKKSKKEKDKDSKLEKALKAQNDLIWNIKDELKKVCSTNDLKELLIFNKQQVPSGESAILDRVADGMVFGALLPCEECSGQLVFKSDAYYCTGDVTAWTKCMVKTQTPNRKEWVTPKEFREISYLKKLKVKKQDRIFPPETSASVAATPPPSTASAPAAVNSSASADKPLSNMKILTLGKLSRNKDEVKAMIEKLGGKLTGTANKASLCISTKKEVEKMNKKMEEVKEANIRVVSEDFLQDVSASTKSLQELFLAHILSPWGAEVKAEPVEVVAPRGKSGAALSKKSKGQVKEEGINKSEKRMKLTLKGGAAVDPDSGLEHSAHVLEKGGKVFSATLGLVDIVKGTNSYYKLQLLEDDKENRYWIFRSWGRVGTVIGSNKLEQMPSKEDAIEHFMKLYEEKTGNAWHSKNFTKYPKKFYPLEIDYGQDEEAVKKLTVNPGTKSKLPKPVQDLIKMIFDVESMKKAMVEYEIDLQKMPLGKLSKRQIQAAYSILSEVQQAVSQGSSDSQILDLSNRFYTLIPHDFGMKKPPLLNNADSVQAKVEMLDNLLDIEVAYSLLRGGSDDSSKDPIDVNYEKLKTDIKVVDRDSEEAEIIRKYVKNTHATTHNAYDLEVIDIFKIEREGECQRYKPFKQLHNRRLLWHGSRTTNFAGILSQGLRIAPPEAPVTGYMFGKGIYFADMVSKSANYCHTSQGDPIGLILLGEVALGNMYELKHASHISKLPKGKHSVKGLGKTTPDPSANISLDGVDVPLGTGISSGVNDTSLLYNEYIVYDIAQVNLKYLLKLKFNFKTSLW
Procedure: Olaparib was used as positive control. Fluorescence values under the condition of excitation wavelength (544 nm) and emission wavelength (590 nm) were measured using a multi-well spectrophotometer (Molecular Devices SpectraMax M5 microplate reader, Careforde, Chicago, USA). Then, the standard curve was drawn and the inhibition rate of each test compound was calculated. IC50 value of each compound was calculated using GraphPad Prism 6 software.

[2] = Biodistribution of radiolabeled complexes in normal mice; assay type: in vivo, Albino mice
[3] = test system: solid tumor (Ehrlich Ascites Carcinoma); assay: Biodistribution and tumor targeting in solid tumor-bearing mice; assay type: in vivo, Swiss Albino mice
Procedure: To form a solid tumor, a 0.2 mL of Ehrlich Ascites Carcinoma fluid was administered intramuscularly in the right thigh of female Swiss Albino mice. The animals were well-cared until the tumors became obvious (7- 10 days). The parent tumor line (Ehrlich Ascites Carcinoma) was withdrawn from 7-day-old Swiss Albino donor females and diluted with sterile physiological saline solution to yield 12.5 x 10^6 cells/mL [52].
Biodistribution studies were performed by injecting the solid tumor-bearing mice intravenously with NGO-COOH nanosheets followed by injecting the radiolabeled complexes. The mice were divided into four groups (four mice per group) according to the designated time of dissection. Following the administration of the radiolabeled nanosheets, mice were dissected at 0.5, 1, 2, 4 h post injection (p.i). Blood, solid tumor, and major organs/tissues were collected and wet-weighed. The distribution of the radioactivity in each organ/ fluid was measured ex vivo, the radioactivity in each was detected by a gamma-counter (Perkin Elmer) as presented in Fig. 4. The results were expressed as mean percentage injected dose per gram (%ID/g ± SD).

Compound: O=C(O)c1ccccc1NS(=O)(=O)c1ccc2c(=O)[nH]c(=O)[nH]c2c1 [Compound 4b, 2-(2,4-Dioxo-1,2,3,4-tetrahydroquinazoline-7-sulfonamido) benzoic acid]
melting point: 280 to 282 °C
IC50 (PARP-1): 167 nM

Compound: [^99mTc]Tc-NGO-COOH-2,4-dioxo-1,2,3,4-tetrahydroquinazoline-7-sulfonohydrazide [^99mTc-NGO-COOH-3]
blood uptake ([2]; mouse, in vivo, iv, 0.5 h): 5.0 ± 0.5 %ID/g
liver uptake ([2]; mouse, in vivo, iv, 0.5 h): 7.0 ± 0.7 %ID/g
blood uptake ([2]; mouse, in vivo, iv, 4 h): 1 ± 0.1 %ID/g
liver uptake ([2]; mouse, in vivo, iv, 4 h): 15.0 ± 1.5 %ID/g
target/nontarget (T/NT) ratio, tumor muscle to contralateral normal muscle ([3]; mouse, in vivo, iv): 9.0
tumor uptake ([3]; mouse, in vivo, iv, 0.5 h): 7.0 ± 0.70 %ID/g
tumor uptake ([3]; mouse, in vivo, iv, 1 h): 12.0 ± 1.2 %ID/g

Compound: O=c1[nH]c(=O)c2ccc(S(=O)(=O)Nc3nccs3)cc2[nH]1 [Compound 4c, 2,4-dioxo-N-(thiazol-2-yl)-1,2,3,4-tetrahydroquinazoline-7-sulfonamide]
IC50 [1]: 40 nM
reduction in potency (cytotoxicity) [1]: 4 folds
melting point: 265 to 267 °C
IC50 (PARP-1): 153 nM

The next lines start with results.

melting point: > 300 °C
IC50 (PARP-1): 436 nM
Compound: Cc1ccc(NS(=O)(=O)c2ccc3c(=O)[nH]c(=O)[nH]c3c2)cc1 [Compound 4a, 2,4-Dioxo-N-(p-tolyl)-1,2,3,4-tetrahydroquinazoline-7-sulfonamide]
IC50 [1]: 50 nM
reduction in potency (cytotoxicity) [1]: 5 folds

blood uptake ([2]; normal mice, i.v., 0.5 h p.i.): 10.5 ± 1.4 %ID/g
liver uptake ([2]; normal mice, i.v., 0.5 h p.i.): 11 ± 1.7 %ID/g
liver uptake ([2]; normal mice, i.v., 1 h p.i.): 12 ± 1.2 %ID/g
blood uptake ([2]; normal mice, i.v., 4 h p.i.): 3.2 ± 0.4 %ID/g
liver uptake ([2]; normal mice, i.v., 4 h p.i.): 8 ± 1.3 %ID/g
tumor uptake ([3]; solid tumor-bearing mice, i.v., 0.5 h p.i.): 5.0 ± 0.40 %ID/g
tumor uptake ([3]; solid tumor-bearing mice, i.v., 2 h p.i.): 6.5 ± 0.3 %ID/g
tumor uptake ([3]; solid tumor-bearing mice, i.v., 4 h p.i.): 6.0 ± 0.4 %ID/g
Compound: [^99mTc]Tc-2,4-dioxo-1,2,3,4-tetrahydroquinazoline-7-sulfonohydrazide [^99mTc-3]

melting point: 268 to 270 °C
IC50 (PARP-1): 261 nM
Compound: NNS(=O)(=O)c1ccc2c(=O)[nH]c(=O)[nH]c2c1 [Compound 3, 2,4-dioxo-1,2,3,4-tetrahydroquinazoline-7-sulfonohydrazide]
IC50 [1]: 6 nM
times more potent than Staurosporine (cytotoxicity) ([1]; MDA-MB-436, ratio of IC50): about 1.6 times
